Results reported in patent US20260373160A1, “COMPOSITION FOR IMPROVEMENT, PREVENTION OR TREATMENT OF STRESS AND DEPRESSION RELATED DISEASES COMPRISING TALAMPANEL” (POSTECH RESEARCH AND BUSINESS DEVELOPMENT FOUNDATION, priority 2022, published 2026).

How the values were obtained:
Type in all cases: in vivo, C57BL6/J mice
[1] = test system: mouse model of chronic stress-induced depression; assay: Sucrose preference test (SPT) in mouse model of chronic stress-induced depression; settings: 28 days of restraint stress, i.p. daily; 2% sugar solution vs water, 3 hours; FIG. 7
Method: (§1) Experimental animals, 8-9 week old male C57BL6/J mice, were provided by Hyochang Science in Daegu, Korea. Mice were provided with food and water ad libitum under diurnal lighting conditions (12 hours light, 12 hours dark). All animal experimental procedures were approved by the Institutional Animal Care and Use Committee (IACUC) of Pohang University of Science and Technology, and all experiments were conducted in compliance with the approved guidelines.
(§2) To induce mice of chronic restraint stress-based depression, 8-9 week old male C57BL6/J mice were housed in single cages one day before the experiment.
(§3) Thirty minutes after drug administration, the mice were induced to enter a 50 ml conical tube with a hole to allow breathing, and paper towels were placed to eliminate any empty space, ensuring the mice remained in restraint for 4 hours.
To perform a sugar preference test in a mouse model of chronic stress-induced depression, the mice were deprived of food and water for 18 hours on Day 1 of the experiment. On Days 2 and 3, the mice were provided with food, along with a 2% sugar solution and water simultaneously to allow exposure to the 2% sugar. […] To measure the intake of the mice, the weights of the solution and bottle were recorded before and after the 3-hour test.
Sucrose preference was calculated by the following expression: (Sugar solution intake/Total liquid intake)×100. […]

[2] = Body weight change in mouse model of chronic restraint stress-based depression; settings: for body weight change compared to the control group: 15 days, with 4 h daily restraint stress, FIG. 3
Method: as §1, §2, §3

[3] = test system: mouse model of chronic stress-induced depression; assay: Tail suspension test (TST) in mouse model of chronic stress-induced depression; settings: 28 days of restraint stress, i.p. daily; 6 minutes scored; FIG. 6
Method: as §1, §2
Thirty minutes after drug administration, the mice were induced to enter a 50 ml conical tube with a hole to allow breathing, and paper towels were placed to eliminate any empty space, ensuring the mice remained in restraint for 4 hours. […]
The activity of each mouse was recorded on video for 6 minutes. Up to four mice were tested at a time, and the immobile time of each mouse was measured for a total of 6 minutes. The movement status of the mouse was defined based on limb movement, with a state of immobility determined when all limbs remained motionless, and the immobile time was measured. […]

[4] = test system: mouse model of chronic stress-induced depression; assay: Forced swim test (FST) in mouse model of chronic stress-induced depression; settings: i.p. daily, last 4 of 6 minutes scored
Method: as §1
To induce mice of chronic restraint stress-based depression, 8-9 week old male C57BL6/J mice were housed in single cages one day before the experiment. […]
To perform the forced swim test in a mouse model of chronic stress-induced depression, a cylindrical tank, with a diameter of 20 cm and a height of 30 cm, was filled with water at a temperature range of 25 °C to 28 °C until the water level reached 15 cm. Then, each mouse was carefully placed in water, and the mouse's activity was recorded on video for 6 minutes. […]
Of the total 6 minutes of recording, the first 2 minutes were excluded as habituation, and the immobile time of each mouse was measured for the next 4 minutes. Mouse movement was defined as any activity other than the minimal movements required to maintain body balance and to ensure the head remained above water, and the immobile time was measured. […]

With `CC(=O)N1N=C(c2ccc(N)cc2)c2cc3c(cc2C[C@H]1C)OCO3` [talampanel] the “sucrose preference (sugar solution intake/total liquid intake) compared to the control group” value [1] was “increased preference for the sugar solution compared to the control group”, the “body weight change compared to the control group” value ([2]; 1 mg/kg i.p. daily) was “increase in body weight compared to the control group from Day 8 of administration” and the “body weight change compared to the control group” value ([2]; 10 mg/kg i.p. daily) was “increase in body weight compared to the control group from Day 8 of administration”. For the same compound, the “effect on weight loss due to stress and depression” value ([2]; i.p. daily, restraint stress, conclusion from body weight measurement) was “preventing weight loss caused by sustained stress”, the “immobile time in tail suspension test compared to the control group” value [3] was “significant reduction in immobile time” and the “immobile time in forced swim test compared to the control group” value ([4]; 15 days of restraint stress, FIG. 4) was “significant reduction in immobile time”. The “immobile time in forced swim test compared to the control group” value ([4]; 28 days of restraint stress, FIG. 5) was “significant reduction in immobile time”.
